From paper PMC6130489, “Caffeic acid methyl and ethyl esters exert potential antidiabetic effects on glucose and lipid metabolism in cultured murine insulin-sensitive cells through mechanisms implicating activation of AMPK” (Pharmaceutical Biology, 2017)

Assays:
GLUT4myc = assay: Cell surface GLUT4myc (GLUT4 translocation), OPD assay; format: cell-based, rat; conditions: insulin 100 nM, 15 min; L6-GLUT4myc
Description: L6-GLUT4myc myotubes grown in 24-well plates were serum-starved for 4 h and were incubated with either CAME or CAEE (50 μM) for 18 h or insulin (100 nM) for 15 min. Cell-surface GLUT4myc levels were measured by an antibody-coupled colorimetric assay (Niu et al. [2003]) using O-phenylenediamine dihydrochloride (OPD) reagent (1 mL/well) (Sigma-Aldrich, St. Louis, MO), an anti-c-myc antibody (1:200 dilution; Santa Cruz Biotechnology, Santa Cruz, CA) and horseradish peroxidase (HRP)-conjugated goat anti-rabbit IgG at 4 °C (1:1000 dilution; Cell Signaling Technologies, Danvers, MA).
Figure 1. (A) CAME and CAEE increase ^3H-deoxyglucose uptake in L6 GLUT4myc myotubes. Cells were treated with 50 μM of either CAME, CAEE, or with vehicle (0.1% DMSO) for 18 h. 100 nM insulin served as the positive control and was applied for the last 15 min of the treatment in vehicle-treated cells. Glucose uptake was performed as described in Materials and Methods section. (B) CAME and CAEE stimulate GLUT4 translocation in L6 GLUT4myc myotubes. Cells were treated as previously described, cell surface GLUT4myc was detected by an enzyme-linked colorimetric assay. By the end of the treatment, L6- GLUT4myc cells were labeled with anti-c-myc antibody as described in Materials and Methods section. Results represent the means ± SEM of three independent experiments, and 3-4 cells were analyzed for each condition per experiment. *Indicates a significant (p ≤ 0.05) difference, **(p < 0.01) from the vehicle control group as assessed by ANOVA. […] L6 myotubes treated with CAME or CAEE (50 μM each), DMSO (0.1%) for 18 h. Insulin (100 nM) and AICAR (2 mM) both applied for 30 min and served as positive controls. Immunoblots were probed with anti phospho-AMPK (Thr 172), anti-GLUT4, anti-GLUT1 and anti-phospho-Akt (Ser 473) antibodies as described in Materials and Methods section. […] Data are expressed as (D) phospho-AMPK/β-actin, (E) GLUT4/β-actin and (F) GLUT1/β-actin and are given as mean ± SEM from 3 experiments. *p < 0.05 indicates a significant difference, **(p < 0.01) from the vehicle control group.

G6Pase = molecular target: T1, G6Pase (Rattus norvegicus, UniProt P43428); assay: Enzymatic activity of G6Pase in H4IIE cells; format: cell-based; conditions: insulin 100 nM, same treatment period, relative to DMSO
T1 sequence (P43428 1-357): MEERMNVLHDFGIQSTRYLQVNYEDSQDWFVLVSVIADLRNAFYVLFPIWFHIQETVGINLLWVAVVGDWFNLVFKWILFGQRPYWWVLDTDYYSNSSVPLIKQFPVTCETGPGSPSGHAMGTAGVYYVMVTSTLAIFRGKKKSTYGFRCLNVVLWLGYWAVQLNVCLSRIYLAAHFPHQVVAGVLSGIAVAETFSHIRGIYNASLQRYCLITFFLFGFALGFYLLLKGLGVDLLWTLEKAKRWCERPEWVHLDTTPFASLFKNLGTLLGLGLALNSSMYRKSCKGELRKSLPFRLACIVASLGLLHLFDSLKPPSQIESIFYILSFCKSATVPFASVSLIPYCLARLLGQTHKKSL
Description: At 90% confluence, H4-IIE cells were treated with 12.5, 25, 50 and 100 μM of either CAME or CAEE in serum free medium. Vehicle (0.1% DMSO)-treated and 100 nM insulin-treated cells served as the negative and positive control respectively. The activity of G6Pase was assessed by measuring the rate of glucose production in the presence of a non-limiting amount of glucose-6-phosphate (G6P) as described elsewhere (Nachar et al. [2013]). Total glucose production was measured using a commercial glucose assay kit (AutoKit Glucose; Wako Diagnostics, Richmond, VA). Protein content was measured using bicinchoninic acid (BCA) assay (Simpson [2008]) and G6Pase activity was expressed in relation to protein content.
Figure 2. CAME and CAEE inhibit G6Pase by mechanisms involving activation of AMPK. (A) H4IIE hepatocytes were treated for 16 h with several concentrations (12.5, 25, 50 and100 μM) of either CAME or CAEE and G6Pase activity was determined colorimetrically using a commercial glucose assay kit as described under Materials and Methods. Data are expressed relative to vehicle control (0.1% DMSO, 0% inhibition). Insulin (100 nM) applied for similar treatment period served as the positive control. (B and C) Cells were treated with the optimal nontoxic concentration of either CAME, CAEE (50 μM each), or DMSO (0.1%) for 18 h, insulin (100 nM), AICAR (1 mM) applied for 30 min served as the positive controls. (B) The upper blot was probed with anti-phospho-AMPK antibody (Thr 172) and the lower blot was probed with anti-pan AMPK. (C) Blots were probed with antibodies against phospho-Akt (Ser 473) or pan-Akt. Immunoblots are representative of three independent experiments with similar results. (D) Data are expressed as phospho-AMPK/pan-AMPK and are given as mean ± SEM from 3 experiments. *p < 0.05 indicates a significant difference, **(p < 0.01), ***(p < 0.001) from the vehicle control group.

L6 GLUT4myc myotubes = assay: 3H-Deoxyglucose uptake assay; format: cell-based, rat; conditions: insulin 100 nM, 15 min
Description: Measurement of glucose uptake was performed as previously described (Eid et al. [2010]) using [^3H]-2-deoxyglucose (TRK-383, Amersham Biosciences, Buckinghamshire, UK). Nonspecific uptake was measured in the presence of cytochalasin B (10 μM) and was subtracted from all values.
Figure 1. (A) CAME and CAEE increase ^3H-deoxyglucose uptake in L6 GLUT4myc myotubes. Cells were treated with 50 μM of either CAME, CAEE, or with vehicle (0.1% DMSO) for 18 h. 100 nM insulin served as the positive control and was applied for the last 15 min of the treatment in vehicle-treated cells. Glucose uptake was performed as described in Materials and Methods section. (B) CAME and CAEE stimulate GLUT4 translocation in L6 GLUT4myc myotubes. Cells were treated as previously described, cell surface GLUT4myc was detected by an enzyme-linked colorimetric assay. By the end of the treatment, L6- GLUT4myc cells were labeled with anti-c-myc antibody as described in Materials and Methods section. Results represent the means ± SEM of three independent experiments, and 3-4 cells were analyzed for each condition per experiment. *Indicates a significant (p ≤ 0.05) difference, **(p < 0.01) from the vehicle control group as assessed by ANOVA. […] L6 myotubes treated with CAME or CAEE (50 μM each), DMSO (0.1%) for 18 h. Insulin (100 nM) and AICAR (2 mM) both applied for 30 min and served as positive controls. Immunoblots were probed with anti phospho-AMPK (Thr 172), anti-GLUT4, anti-GLUT1 and anti-phospho-Akt (Ser 473) antibodies as described in Materials and Methods section. Anti-β-actin antibody was used as a loading control. Representative blots are shown in panel C. Data are expressed as (D) phospho-AMPK/β-actin, (E) GLUT4/β-actin and (F) GLUT1/β-actin and are given as mean ± SEM from 3 experiments. *p < 0.05 indicates a significant difference, **(p < 0.01) from the vehicle control group.

AMPK = assay: Western immunoblot phospho-AMPK in L6 myotubes; format: cell-based, rat; conditions: AICAR 30 min (2 mM per Figure 1 legend, 1 mM per methods)
Description: L6 cells myotubes, H4IIE cells and 3T3-L1 adipocytes were treated with either CAME, CAEE (50 μM each) or vehicle (DMSO) for 18 h. Insulin (100 nM) or aminoimidazole carboxamide ribonucleotide (AICAR; 1 mM) were added to some vehicle-treated wells 30 min prior to the end of the treatment and served as the positives controls. Protein content was assayed by the bicinchoninic acid method (Thermo Scientific Pierce Protein Research, Rockford, IL) standardized to bovine serum albumin. Western immunoblotting was performed as described elsewhere (Eid et al. [2010]). Membranes were incubated overnight with phospho-AMPK, phospho-Akt, GLUT4, GLUT1 and β-actin antibodies (1:1000 dilution, Cell Signalling Technology, Danvers, MA), or with PPAR-γ, SREBP-1 (1:200, Santa Cruze Biotechnology, Santa Cruz, CA), followed by incubation with HRP-coupled secondary antibody (1:10,000) for 1 h. Immunoreactive bands were visualized by enhanced chemiluminescence and quantified by the Scion Image program (Scion Corporation, Frederick, MD). Experiments were repeated on 3 different passages of cells, each passage containing all conditions in parallel.
Figure 1. (A) CAME and CAEE increase ^3H-deoxyglucose uptake in L6 GLUT4myc myotubes. Cells were treated with 50 μM of either CAME, CAEE, or with vehicle (0.1% DMSO) for 18 h. 100 nM insulin served as the positive control and was applied for the last 15 min of the treatment in vehicle-treated cells. Glucose uptake was performed as described in Materials and Methods section. […] Cells were treated as previously described, cell surface GLUT4myc was detected by an enzyme-linked colorimetric assay. […] Results represent the means ± SEM of three independent experiments, and 3-4 cells were analyzed for each condition per experiment. *Indicates a significant (p ≤ 0.05) difference, **(p < 0.01) from the vehicle control group as assessed by ANOVA. […] Data are expressed as (D) phospho-AMPK/β-actin, (E) GLUT4/β-actin and (F) GLUT1/β-actin and are given as mean ± SEM from 3 experiments. *p < 0.05 indicates a significant difference, **(p < 0.01) from the vehicle control group.

Molecule: insulin: Insulin from bovine pancreas, positive control (100 nM)
- GLUT4 translocation, fold relative to DMSO (GLUT4myc): 1.73 ± 0.18 fold
- inhibition of G6Pase activity (G6Pase): 70.7 ± 2.3%
- glucose uptake, percent of DMSO control (L6 GLUT4myc myotubes): 175 ± 13%
- 2-deoxyglucose uptake rate (L6 GLUT4myc myotubes; basal (DMSO) 10.1 ± 0.5): 17.7 ± 1.2 pmol/min/mg protein

Molecule: NC(=O)c1ncn([C@@H]2O[C@H](CO)[C@@H](O)[C@H]2O)c1N [AICAR, aminoimidazole carboxamide ribonucleotide, reference compound]
- AMPK phosphorylation, fold increase over DMSO (AMPK): 8.5 fold
